Laboratory results: patent US20130102009A1, “SIRTUIN ACTIVATORS AND ACTIVATION ASSAYS” (priority 2010, published 2013)
Values joined by “and” are separate entries in the source; they are usually repeats but may differ in a detail not shown here. Identical values can stand only once. Like-named read-outs stand apart in the source and are kept apart here.

Biological target: T1, SIRT1 (Homo sapiens, UniProt Q96EB6)
T1 sequence (Q96EB6 1-747): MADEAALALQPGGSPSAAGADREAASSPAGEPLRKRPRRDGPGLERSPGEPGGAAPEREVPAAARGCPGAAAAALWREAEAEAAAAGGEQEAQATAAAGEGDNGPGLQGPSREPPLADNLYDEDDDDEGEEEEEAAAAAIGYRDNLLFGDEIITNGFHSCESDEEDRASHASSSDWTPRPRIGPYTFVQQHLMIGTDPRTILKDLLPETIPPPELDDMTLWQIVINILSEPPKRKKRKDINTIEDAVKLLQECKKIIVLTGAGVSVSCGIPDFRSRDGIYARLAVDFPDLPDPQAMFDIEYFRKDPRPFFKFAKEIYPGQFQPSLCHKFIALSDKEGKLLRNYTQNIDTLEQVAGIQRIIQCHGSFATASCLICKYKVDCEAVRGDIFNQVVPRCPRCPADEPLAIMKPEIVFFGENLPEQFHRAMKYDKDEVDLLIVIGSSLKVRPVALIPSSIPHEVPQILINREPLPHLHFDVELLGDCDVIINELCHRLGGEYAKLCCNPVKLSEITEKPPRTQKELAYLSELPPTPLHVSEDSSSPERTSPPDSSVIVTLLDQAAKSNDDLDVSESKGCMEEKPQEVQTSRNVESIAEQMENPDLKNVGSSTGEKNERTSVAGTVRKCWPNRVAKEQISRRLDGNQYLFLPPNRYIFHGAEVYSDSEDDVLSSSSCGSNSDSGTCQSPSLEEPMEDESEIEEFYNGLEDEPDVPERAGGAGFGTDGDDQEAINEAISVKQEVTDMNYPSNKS
Assay: Mass spectroscopic kinetic assay of SIRT1-catalyzed deacetylation of 20mer peptides
Assay type: biochemical
Protocol: Bovine glutamate dehydrogenase (GDH), α-ketoglutarate, NADH and NAD^+ were from Sigma Chemical Company. […] The nicotinamidase PNC1 was prepared as described by Denu and colleagues (Smith et al. (2009) Anal Biochem 394, 101-109). Our collection of approximately 5,000 SIRT1 activators was screened using the BioTrove mass spectrometry system, as previously described (Milne et al. (2007) Nature 450, 712-716). […] Compounds were present at 10 μM, and the assays were conducted in a pH 7.4 buffer containing 150 mM Tris, 5 mM DTT, 1% DMSO, and 0.025% BSA. To determine the interaction of STACs with SIRT1 two kinetic methods were employed. […] (2007) Nature 450, 712-716). The other, used with peptides of general structure […], used a continuous, enzyme-coupled method reported previously (Smith et al. (2009) Anal Biochem 394, 101-109), in which the SRT1 product nicotinamide is first converted into nicotinic acid and ammonia by the action of PNC1, and the ammonia then used by GDH to convert α-ketoglutarate into glutamate. This reaction occurs with oxidation of NADH to NAD^+ which is accompanied by a change in absorbance at 340 nm (Δε340=-6,200 M^-1 cm^-1). Activator titrations were plotted as relative velocity (i.e., the ratio of vx, velocity in the presence of activator X, to vo, velocity in the absence of activator) vs. [X]o, initial concentration of activator, and fit by nonlinear least-squares to the mechanism-independent expression for enzyme activation of […] the maximum relative velocity (i.e., vx/vo at infinite [X]o) and EC50 is the activator concentration at which vx/vo=(RVmax-1)/2. EC50 is a function of the kinetic mechanisms of both catalysis and activation, and the concentrations of substrates.

Question: Which “RVmax (maximum relative velocity)” value (substrate TAMRA-peptide, fit to eq (1)) does the source give for `CCCCc1nc(NC2CCNCC2)cc(C(=O)Nc2ccccc2-c2nc3cc(COC4CCNCC4)cnc3s2)n1` [Compound 10, 2-butyl-6-(piperidin-4-ylamino)-N-(2-(6-((piperidin-4-yloxy)methyl)thiazolo[5,4-b]pyridin-2-yl)phenyl)pyrimidine-4-carboxamide] here?
Answer: The value was 6.8±0.3.

Question: What about the EC50 (substrate TAMRA-peptide, fit to eq (1), read-out: EC50 (Kx) for activation of SIRT1-catalyzed deacetylation of TAMRA-peptide) of the same molecule?
Answer: Its EC50 is 3900 ± 500 nM.

Question: What about the “Effect on the deacetylation of des(biotin,TAMRA)-peptide” value (substrate des(biotin,TAMRA)-peptide) of the same molecule?
Answer: Its value is “none activate”.

Question: What about the “RVmax for activation of the deacetylation of desTAMRA-peptide” value (substrate desTAMRA-peptide, fit to eq (1)) of the same molecule?
Answer: Its value is roughly 2.3.

Question: And the “RVmax for activation of the deacetylation of desTAMRA-peptide” value (substrate desTAMRA-peptide, fit to eq (1), listed as 22)?
Answer: The value was 2.6 ± 0.1.

Question: What about the EC50 (substrate desTAMRA-peptide, fit to eq (1), read-out: EC50 for activation of the deacetylation of desTAMRA-peptide) of the same molecule?
Answer: Its EC50 is ~2000 nM and 1700 nM.

Question: And the “Ki,app for inhibition of the deacetylation of p53-20 mer” value (substrate p53-20 mer, RV=1/(1+([X]o/Ki,app)))?
Answer: Its value is “inhibit”.

Question: What about the Ki (substrate p53-20 mer, RV=1/(1+([X]o/Ki,app)), read-out: Ki,app for inhibition of the deacetylation of p53-20 mer) of the same molecule?
Answer: The Ki was 9000 nM.
